Paper PMC8972196, “A Set of Experimentally Validated Decoys for the Human CC Chemokine Receptor 7 (CCR7) Obtained by Virtual Screening” (Frontiers in Pharmacology, 2022)
Read-outs that look alike come from different tables or passages of the source.

Target: T1, human CCR7 (Homo sapiens, UniProt P32248)
T1 construct: expressed in transfected cells
T1 sequence (P32248 25-378): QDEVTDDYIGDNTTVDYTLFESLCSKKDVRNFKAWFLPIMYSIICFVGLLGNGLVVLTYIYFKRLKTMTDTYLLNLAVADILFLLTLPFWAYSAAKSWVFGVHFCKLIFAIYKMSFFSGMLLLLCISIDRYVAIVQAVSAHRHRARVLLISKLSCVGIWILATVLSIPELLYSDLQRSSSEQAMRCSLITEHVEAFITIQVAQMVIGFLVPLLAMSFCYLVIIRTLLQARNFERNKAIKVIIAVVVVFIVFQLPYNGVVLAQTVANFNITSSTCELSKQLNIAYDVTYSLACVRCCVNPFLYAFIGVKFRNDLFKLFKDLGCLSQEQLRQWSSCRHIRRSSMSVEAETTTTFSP
Experiment: CCL19-induced calcium mobilization assay, U87.CD4 cells expressing CCR7
Assay type: cell-based
How it was run: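 U87.CD4 cells stably expressing human CCR7, CXCR2 or CCR5 were seeded at 20,000 cells/well and incubated overnight at 37°C and 5% CO2. Cells were then incubated for 45 min at room temperature in the dark before calcium responses were recorded. CCR7 responses were induced with CCL19 and CXCR2 responses with CXCL8.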

[1] = CCL19-induced calcium signaling, read-out: IC50 [μM] block CCL19 induced calcium signaling
[2] = classification of tested compounds as decoy or active
[3] = CCL19 induced calcium signaling, read-out: IC50 [μM] block CCL19 induced calcium signaling
[4] = classification as decoy or active on CCR7

| SMILES | IC50 [1] | Decoy – 0 Active – 1 [2] | IC50 [3] | Decoy – 0 Active – 1 [4] | IC50 |
| --- | --- | --- | --- | --- | --- |
| CS(=O)(=O)c1ccc(-c2cccc(NC(=O)[C@H]3CCCO3)c2)nn1 [C101, CS(=O)(=O)c1ccc(-c2cccc(NC(=O)[C@H]3CCCO3)c2)nn1] | > 50 µM | 0 | – | – | – |
| O=C1CCC(C(=O)NC(c2ccc(F)cc2)C(F)(F)F)N1 (stereo not drawn) [C204, O=C1CCC(C(=O)NC(c2ccc(F)cc2)C(F)(F)F)N1] | – | – | > 50 µM | 0 | – |
| O=C(NCc1cccnc1)c1ccccc1NS(=O)(=O)c1ccc2c(c1)OCCO2 [C239, c1ccc(c(c1)C(=O)NCc2cccnc2)NS(=O)(=O)c3ccc4c(c3)OCCO4] | – | – | > 50 µM | 0 | – |
| N=C(Nc1ccc(Br)cc1)C(N)=Nc1ccc(Br)cc1 [C077, NC(=[NH+]c1ccc(Br)cc1)C(=[NH2+])Nc1ccc(Br)cc1] | > 10 µM | 0 | – | – | – |
| O=C(NCC1(c2cccc(F)c2)CCCCC1)c1n[nH]c(=O)[nH]1 [C195, O=C(NCC1(c2cccc(F)c2)CCCCC1)c1n[nH]c(=O)[nH]1] | – | – | > 50 µM | 0 | – |
| CC(=O)N1CCC2(CC1)CC(C(=O)O)N(C(=O)c1ccc(C)c3ccccc13)C2 (stereo not drawn) [C212, CC(=O)N1CCC2(CC1)CC(C(=O)[O-])N(C(=O)c1ccc(C)c3ccccc13)C2] | – | – | > 50 µM | 0 | – |
| COc1ccc(C(Cc2ccccc2)NC(=O)N2CCC(O)C(F)(F)C2)cc1 (stereo not drawn) [C181, COc1ccc(C(Cc2ccccc2)NC(=O)N2CCC(O)C(F)(F)C2)cc1] | – | – | > 50 µM | 0 | – |
| Cc1ccc(S(=O)(=O)N2c3ccccc3CC2CO)cc1[N+](=O)[O-] (stereo not drawn) [C266, Cc1ccc(cc1[N+](=O)[O-])S(=O)(=O)N2c3ccccc3CC2CO] | – | – | > 50 µM | 0 | – |
| CC[C@@H](NC(=O)N1CCN(C(=O)c2ccccc2)CC1)c1cccc(C)n1 [C161, CC[C@@H](NC(=O)N1CCN(C(=O)c2ccccc2)CC1)c1cccc(C)n1] | – | – | > 50 µM | 0 | – |
| O=C(NCc1ccccn1)c1cn2c(n1)C(=O)N(CC1CC1)CC2 [C095, O=C(NCc1ccccn1)c1cn2c([nH+]1)C(=O)N(CC1CC1)CC2] | > 50 µM | 0 | – | – | – |
| CCOC(=O)CNC(=S)Nc1ncccc1C [C043, CC1=CC=CN=C1NC(NCC(OCC)=O)=S] | > 30 µM | 0 | – | – | – |
| Cc1ccc(S(=O)(=O)C(CNS(=O)(=O)c2ccc(F)cc2)c2cccnc2)cc1 (stereo not drawn) [C262, Cc1ccc(cc1)S(=O)(=O)C(CNS(=O)(=O)c2ccc(cc2)F)c3cccnc3] | – | – | > 50 µM | 0 | – |
| Cc1oc2ccccc2c1CNC(=O)N1CCC(C)(CO)CC1 [C167, Cc1oc2ccccc2c1CNC(=O)N1CCC(C)(CO)CC1] | – | – | > 50 µM | 0 | – |
| CNC(=O)c1cccc(NC(=O)N[C@H](C)Cc2ccc(C)s2)c1C [C115, CNC(=O)c1cccc(NC(=O)N[C@H](C)Cc2ccc(C)s2)c1C] | – | 0 | – | – | > 50 µM |
| CCN(CC)C(CNC(=O)c1ccc(C)[nH]c1=O)Cc1ccccc1 (stereo not drawn) [C283, CCN(CC)C(CNC(=O)c1ccc(C)[nH]c1=O)Cc1ccccc1] | – | – | – | 0 | > 50 µM |
| CC[C@@H](NC(=O)c1cc(-c2cccc(OC)c2)n[nH]1)c1nc(C)c(C)s1 [C159, CC[C@@H](NC(=O)c1cc(-c2cccc(OC)c2)n[nH]1)c1nc(C)c(C)s1] | – | – | > 50 µM | 0 | – |
| O=c1c(Nc2cc(C(F)(F)F)cc(C(F)(F)F)c2)c(N[C@H]2CCCC[C@@H]2N2CCCCC2)c1=O [C023, O=C1C(N[C@H]2CCCC[C@@H]2N3CCCCC3)=C(NC4=CC(C(F)(F)F)=CC(C(F)(F)F)=C4)C1=O] | > 50 µM | 0 | – | – | – |
| Cc1cccc(CN2CCC[C@H](Nc3ccc(C)c(C)c3)C2)n1 [C083, Cc1cccc(C[N@H+]2CCC[C@H](Nc3ccc(C)c(C)c3)C2)n1] | > 50 µM | 0 | – | – | – |
| CCN(Cc1ccc(Cl)cc1)Cc1cc(=O)c2cccc(F)c2[nH]1 [C278, CCN(Cc1ccc(Cl)cc1)Cc1cc(=O)c2cccc(F)c2[nH]1] | – | – | > 50 µM | 0 | – |

Second part, led by results:

| IC50 [1] | Decoy – 0 Active – 1 [2] | IC50 [3] | Decoy – 0 Active – 1 [4] | SMILES | IC50 |
| --- | --- | --- | --- | --- | --- |
| > 10 µM | 0 | – | – | Cc1ccc(C(C)NC(=O)C(=O)Nc2cc(C(=O)N(C)C)ccc2C)o1 (stereo not drawn) [C058, Cc1ccc(C(C)NC(=O)C(=O)Nc2cc(C(=O)N(C)C)ccc2C)o1] | – |
| > 50 µM | 0 | – | – | COCCN(Cc1cccs1)C(=O)N[C@@H](C)c1ccc(C)o1 [C141, COCCN(Cc1cccs1)C(=O)N[C@@H](C)c1ccc(C)o1] | – |
| > 10 µM | 0 | – | – | Cc1ccc(NCC(=O)NCc2ccco2)cc1C(=O)N(C)C [C057, Cc1ccc(NCC(=O)NCc2ccco2)cc1C(=O)N(C)C] | – |
| > 30 µM | 0 | – | – | FC(F)(F)c1ccccc1NC(=S)Nc1ccn(Cc2ccc(Cl)cc2)n1 [C031, FC(F)(F)c1ccccc1NC(=S)Nc1ccn(Cc2ccc(Cl)cc2)n1] | – |
| – | – | > 50 µM | 0 | CC(=O)N1CCCCC1CC(=O)NC1(C)CCc2ccccc2C1 (stereo not drawn) [C193, CC(=O)N1CCCCC1CC(=O)NC1(C)CCc2ccccc2C1] | – |
| > 30 µM | 0 | – | – | OCc1ccccc1NC(=S)NCc1ccccc1 [C038, OCc1ccccc1NC(=S)NCc1ccccc1] | – |
| > 10 µM | 0 | – | – | N=C(Nc1ccccc1)C(N)=Nc1ccccc1 [C068, NC(=[NH+]c1ccccc1)C(=[NH2+])Nc1ccccc1] | – |
| > 10 µM | 0 | – | – | CC1CCCCN1C(=O)CNc1ccc(Cl)c(C(=O)N(C)C)c1 (stereo not drawn) [C073, CC1CCCCN1C(=O)CNc1ccc(Cl)c(C(=O)N(C)C)c1] | – |
| > 50 µM | 0 | – | – | Cc1cnn(C[C@@H]2CCCN2C(=O)[C@H](C(C)C)n2cncn2)c1 [C143, Cc1cnn(C[C@@H]2CCCN2C(=O)[C@H](C(C)C)n2cncn2)c1] | – |
| > 50 µM | 0 | – | – | CN(C)C1(CNc2c(N3CCN(Cc4ccccc4Cl)CC3)c(=O)c2=O)CCCC1 [C015, C[NH+](C)C1(CNc2c(N3CC[NH+](Cc4ccccc4Cl)CC3)c(=O)c2=O)CCCC1] | – |
| – | – | > 50 µM | 0 | O=C1CC(C(=O)NC2CCCc3ccccc32)Cc2nc(NC(=O)C3CCC3)sc21 (stereo not drawn) [C226, O=C1CC(C(=O)NC2CCCc3ccccc32)Cc2nc(NC(=O)C3CCC3)sc21] | – |
| – | – | > 50 µM | 0 | CC1CN(Cc2ccccc2)CCC1N(C)CC(=O)NC12CC3CC(CC(C3)C1)C2 (stereo not drawn) [C281, CC1CN(Cc2ccccc2)CCC1N(C)CC(=O)NC12CC3CC(CC(C3)C1)C2] | – |
| – | – | > 50 µM | 0 | Cn1nc(C(=O)N[C@@H]2CCCC[C@@H]2Cc2ccccc2)ccc1=O [C160, Cn1nc(C(=O)N[C@@H]2CCCC[C@@H]2Cc2ccccc2)ccc1=O] | – |
| > 50 µM | 0 | – | – | CNC(=O)c1cccc(NC(=O)c2cn(Cc3ccccn3)nn2)c1C [C100, CNC(=O)c1cccc(NC(=O)c2cn(Cc3ccccn3)nn2)c1C] | – |
| > 50 µM | 0 | – | – | O=S1(=O)N=C(NCCN2CCCC2)C(NCCN2CCCC2)=N1 [C150, O=S1(=O)N=C(NCC[NH+]2CCCC2)C(NCC[NH+]2CCCC2)=N1] | – |
| > 50 µM | 0 | – | – | C[C@H](c1ccccc1)[C@@H](C)NC(=O)N[C@H]1CCN(C)C1=O [C114, C[C@@H](NC(=O)N[C@H]1CCN(C)C1=O)[C@H](C)c1ccccc1] | – |
| – | – | > 50 µM | 0 | O=C(O)c1ccc(CNC(=O)C2(c3ccc(Cl)cc3)CCC2)o1 [C185, O=C([O-])c1ccc(CNC(=O)C2(c3ccc(Cl)cc3)CCC2)o1] | – |
| – | – | > 50 µM | 0 | CCc1cc(C(=O)NCC(O)c2ccc(O)cc2)cc(=O)[nH]1 (stereo not drawn) [C203, CCc1cc(C(=O)NCC(O)c2ccc(O)cc2)cc(=O)[nH]1] | – |
| > 50 µM | 0 | – | – | C[C@@H](CNC(=O)N[C@H]1CCO[C@@H](C2CC2)C1)c1ccsc1 [C109, C[C@@H](CNC(=O)N[C@H]1CCO[C@@H](C2CC2)C1)c1ccsc1] | – |
| > 50 µM | 0 | – | – | CN(C)CCNc1c(Nc2cc(C(F)(F)F)cc(C(F)(F)F)c2)c(=O)c1=O [C024, O=C1C(NCCN(C)C)=C(NC2=CC(C(F)(F)F)=CC(C(F)(F)F)=C2)C1=O] | – |
| – | – | > 50 µM | 0 | O=C(Nc1nc2c(s1)C(=O)CC(C(=O)NC1CCCc3ccccc31)C2)c1ccncc1 (stereo not drawn) [C225, O=C(Nc1nc2c(s1)C(=O)CC(C(=O)NC1CCCc3ccccc31)C2)c1ccncc1] | – |
| – | – | > 50 µM | 0 | O=C(NC1CC(C(=O)O)c2ccccc21)C1CCCN(C(=O)N2CCCC2)C1 (stereo not drawn) [C197, O=C(NC1CC(C(=O)[O-])c2ccccc21)C1CCCN(C(=O)N2CCCC2)C1] | – |
| – | – | > 50 µM | 0 | CC1CC(C)CN(C(=O)c2ccccc2NS(=O)(=O)c2ccc3[nH]c(=O)[nH]c3c2)C1 (stereo not drawn) [C257, CC1CC(CN(C1)C(=O)c2ccccc2NS(=O)(=O)c3ccc4c(c3)[nH]c(=O)[nH]4)C] | – |
| – | – | > 50 µM | 0 | NC(=O)Nc1cccc(C(=O)NCc2ccccc2Cl)c1 [C173, NC(=O)Nc1cccc(C(=O)NCc2ccccc2Cl)c1] | – |
| > 50 µM | 0 | – | – | CC(=O)N[C@@H](Cc1ccccc1)C(=O)N[C@H](C)c1ccccc1 [C144, CC(=O)N[C@@H](Cc1ccccc1)C(=O)N[C@H](C)c1ccccc1] | – |
| – | – | > 50 µM | 0 | COc1ccc(C(=O)C2CCCN(Cc3cc4ccccc4[nH]3)C2)c(OC)c1 (stereo not drawn) [C273, COc1ccc(C(=O)C2CCCN(Cc3cc4ccccc4[nH]3)C2)c(OC)c1] | – |
